Measurements as given in patent US4060526A, “1-Heterocyclic alkyl-1,2,3,4-tetrahydroquinazolinones and analgesic intermediates thereof” (priority 1976, dated 1977).
Read-outs that look alike come from different tables or passages of the source.

How the values were obtained:
[1] = test system: sciatic nerve; test: local anesthesia, sciatic block; type: in vivo, mice; details: Pos. = blockade took place and leg and foot returned to normal after a time
Description: An effective local anesthetic causes a blockade of the nerves of the lower leg and foot causing the animal, when permitted to walk, to do so flatfooted, rather than its normal habit, up on its toes. Alternatively an effective local anesthetic, by the sciatic block method, can cause the leg to be dragged by the animal when walking so long as effective sciatic block persists. Toxic agents may effect the same apparent results, but the blockade effected by toxic agents is irreversible. However, in contrast to toxic agents, an effective local anesthetic permits recovery of the use of the leg and foot after a period of time.
The mice used in the sciatic block test were placed in a holder with their hind limbs extended. A quantity of the test compound (e.g. 0.05 ml) was injected into the area surrounding the sciatic nerve at the juncture of the two major leg muscles. Effective local anesthetic activity is indicated in Table IV ("Pos." --meaning that the blockade did take place and that the leg and foot returned to normal after a time.)

[2] = test system: NARCOTIC ANTAGONISM; test: narcotic antagonism (Table IV); type: in vivo; details: I.P.
Experimental: (§1) The compounds of this invention were tested for their ability to antagonize narcotic analgesics by two different tests. […] Another test used for narcotic antagonist activity was published by Harris & Pearson. This test is modification of the D'Amour & Smith method.
(§2) In the original method the time required for rats to flick their tails following application of a heat stimulus is taken as a measure of analgesic potency.

[3] = in vivo
[4] = test system: MOUSE TAIL STIMULATION; test: mouse tail stimulation analgesia; details: for ED50: Mus musculus, sc, read-out: MOUSE TAIL STIMULATION ED50
[5] = phenylbenzoquinone writhing test, mouse; type: in vivo; details: mouse, in vivo, po, Mouse p.o.
Experimental: (§5) In addition to the hot plate method, the writhing test described by Sigmund et al., Soc. Exp. Biol. and Med. 95:729 (1957) has been applied in both rats and mice as further indication of analgesics. […] The stimulus of intraperitoneal injection of phenylbenzoquinone results in a writhing syndrome characterized by periodic twisting and stretching of the body with extension of the hind legs. […] The dose of compound protecting 50% of the animals is determined and expressed as the ED50. Ten animals are used at each dose level.

[6] = test system: phenylbenzoquinone writhing; test: phenylbenzoquinone writhing test, mouse; type: in vivo; details: po; Mouse p.o.
Experimental: as §5

[7] = in vivo; remark: listed apart in the source
[8] = test system: oxymorphone induced mydriasis; test: antagonism of oxymorphone induced mydriasis; type: in vivo, mice; details: mice; words
Experimental: as §1

[9] = in vivo; details: mouse
[10] = test system: heat stimulus; test: mouse hot plate test (Eddy and Leimbach, modified); details: Mus musculus, read-out: Hot Plate ED50
[11] = acute toxicity, rat; details: in vivo, sc; Rat s.c.; preliminary result
Experimental: (§3) Compounds were administered in 2% clearjel as a suspension except in
(§4) Toxicities have only been run with male animals to date.

[12] = acute toxicity, cat; details: in vivo, ip; Cat i.p.; preliminary result (740-222)
Experimental: as §3, §4

[13] = test system: heat stimulus; test: D'Amour Smith Rat Tail Flick; type: in vivo; details: Sub. cut.
Description: as §2

Row | Structure (SMILES) | LOCAL ANESTHESIA SCIATIC BLOCK [1] | NARCOTIC ANTAGONISM [2] | LD50 ([3]; ip) [mg/kg] | NOAEL ([3]; ip) [mg/kg] | also measured
1 | NC(=O)c1ccccc1NCCN1CCC(c2ccccc2)CC1 [XXX, 2-[2-(4-phenyl-1-piperidyl)ethylamino]benzamide] | Positive | Positive | 200 | 10 | 
2 | CC(CNc1ccccc1C(N)=O)N1CCN(c2ccccc2)CC1.Cl (stereo not shown) [XIV, 2-[2-(4-phenyl-1-piperazinyl)propylamino]benzamide hydrochloride] | Positive | Positive | 300 | 10 | 
3 | Cl.Cl.Cl.NC(=O)c1ccccc1NCCN1CCN(Cc2ccccc2)CC1 [Example XX, 2-(2-[4-Benzyl-1-piperazinyl]ethylamino)benzamide trihydrochloride] |  | Positive | 100 | 10 | 
4 | CCOC(=O)C1(c2ccccc2)CCN(C)CC1 [Merperidine, reference compound] | Positive | Negative | 130 | 30 | ED50 [4]: 1.8 mg/kg
5 | COc1ccc2c3c1O[C@H]1[C@@H](O)C=C[C@H]4[C@@H](C2)N(C)CC[C@@]341 [Codeine, reference compound] |  |  |  |  | selectivity ratio ([5]; HNSD = highest dose without gross symptoms, read-out: HNSD./ED50 Writhing): 5.9; selectivity ratio ([5]; read-out: LD50 /ED50 Writhing): 32; ED50 [6]: 17 mg/kg; LD50 at 48 h ([7]; mouse, ip): 104 mg/kg; LD50 at 48 h ([7]; mouse, po): 540 mg/kg; effect of narcotic agents on pupil size [8]: no change or an increase in the pupil size; selectivity ratio ([9]; ip, HNSD./ED50 H.P., Mouse i.p., HNSD = highest dose without gross symptoms): 2.6; selectivity ratio ([9]; ip, LD50 /ED50 H.P., Mouse i.p.): 8.7; selectivity ratio ([9]; po, HNSD./ED50 H.P., Mouse p.o., HNSD = highest dose without gross symptoms): 5; selectivity ratio ([9]; po, LD50 /ED50 H.P., Mouse p.o.): 27; ED50 ([10]; ip): 12 mg/kg; ED50 ([10]; po): 20 mg/kg
6 | CCC(=O)OC1(c2ccccc2)CCN(CCNc2ccccc2C(=O)NC)CC1 [XXIX, 2-[2-(4-Propionoxy-4-phenylpiperidyl)ethylamino]-N-methyl-benzamide] |  |  |  |  | LD50 ([3]; po): 16 mg/kg
7 | CCC(=O)OC1(c2ccccc2)CCN(CCN(Cc2ccccc2)c2ccccc2C(N)=O)CC1 [Example XXVII (Step 5 Title Compound)] |  | Negative | 100 | 3 | 
8 | NC(=O)c1ccccc1N(CCN1CCC(O)(c2ccccc2)CC1)Cc1ccccc1 [Example XXVII (Step 4 Title Compound), 2-[Benzyl-(2-[4-hydroxy-4-phenylpiperidyl]ethyl)amino]benzamide] |  |  | 60 | 10 | 
9 | Cl.NC(=O)c1ccccc1NCCN1CCN(CCc2ccccc2)CC1 [XVII, 2-[2-(4-phenethyl-1-piperazinyl)ethylamino]benzamide hydrochloride] | Positive | Negative | 70 | 10 | 
10 | NC(=O)c1ccccc1NCCN1CCCCC1 [XXXI, 2-[N-β-(1-Piperidinoethyl)amino]benzamide] |  | Positive | 40 | 10 | 
11 | CC(C)=CCN1CCC2(C)c3cc(O)ccc3CC1C2C (stereo not shown) [Pentazocine, reference compound] | Positive | Positive | 140 | 30 | 
12 | NC(=O)c1ccccc1NCCN1CCN(c2ccccc2)CC1 [Example 730-372A, 2-[2-(4-[1-Phenyl]piperazinyl)ethylamino]-benzamide] |  |  |  |  | LD50 at 48 h ([7]; ip, Mouse i.p., read-out: LD50 (48 hr)): > 1000 mg/kg; LD50 at 48 h ([7]; iv, Mouse i.v., solution (5mg/ml) in distilled water, read-out: LD50 (48 hr)): 50 mg/kg; LD50 at 48 h ([7]; po, Mouse p.o., read-out: LD50 (48 hr)): > 1000 mg/kg; LD50 at 48 h ([7]; sc, Mouse s.c., read-out: LD50 (48 hr)): > 1000 mg/kg; LD50 at 48 h [11]: > 1000 mg/kg; LD50 at 48 h [12]: > 1000 mg/kg
13 | COC(=O)c1ccccc1NCCN1CCN(c2ccccc2)CC1 [XII, Methyl 2-[2-(1-phenyl-4-piperazinyl)ethylamino]benzoate] | Positive | Negative | 300 | 300 | 
14 | COc1ccc(NCCN2CCN(c3ccccc3)CC2)c(C(N)=O)c1 [XVIII, 5-Methoxy-2-(2[4-phenyl-1-piperazinyl]ethylamino)benzamide] |  | Positive | 300 | 1 | 
15 | CCOc1ccc(NCCN2CCN(c3ccccc3)CC2)c(C(N)=O)c1 [XXIV, 5-Ethoxy-2-(2-[4-phenyl-1-piperazinyl]ethylamino)benzamide] |  | Negative | 300 | 30 | 
16 | CNC(=O)c1ccccc1NCCN1CCN(c2ccccc2)CC1 [XV, 2-(2-[4-phenyl-1-piperazinyl]ethylamino)-N-methylbenzamide] | Positive | Positive | 200 | 3 | 
17 | CCC(=O)OC1(c2ccccc2)CCN(CCN(Cc2ccccc2)c2ccccc2C(=O)NC)CC1 [XXVIII, 2-[Benzyl-(2-[4-propionoxy-4-phenylpiperidyl]ethyl)amino]-N-methyl-benzamide] |  |  |  |  | LD50 ([3]; po): 250 mg/kg
18 | COc1ccc(N2CCN(CCNc3ccccc3C(N)=O)CC2)cc1 [VII, 2-[2-(1-[p-Methoxyphenyl]-4-piperazinyl)ethylamino] benzamide] | Positive | Positive | 300 | 3 | 
19 | Cl.O=C(c1ccccc1NCCN1CCN(c2ccccc2)CC1)N1CCOCC1 [XVI, N-(2-[2-(1-phenyl-4-piperazinyl)ethylamino]benzoyl) morpholine hydrochloride] |  | Positive | 250 | 10 | ED50 [4]: 30 mg/kg
20 | NC(=O)c1cc([N+](=O)[O-])ccc1NCCN1CCN(c2ccccc2)CC1 [XIX, 5-Nitro-2-(2-[4-phenyl-1-piperazinyl]ethylamino)benzamide] |  | Negative |  |  | LD50 ([3]; po): 300 mg/kg
21 | CCC(=O)OC1(c2ccccc2)CCN(CCNc2ccccc2C(N)=O)CC1 [Example XXVII, 2-[2-(4-propionoxy-4-phenylpiperidyl)ethylamino]benzamide] |  |  | 60 | 0.1 | ED50 [4]: 0.03 mg/kg
22 | CC(CN1CCN(c2ccccc2)CC1)Nc1ccccc1C(N)=O (stereo not shown) [XXXII, 2-[1-methyl-2-(4-phenyl-1-piperazinyl)ethylamino]benzamide] |  | Negative | 300 | 3 | 
23 | O=C(Nc1ccccc1)c1ccccc1NCCN1CCN(c2ccccc2)CC1 [XXII, 2-[2-(1-Phenyl-4-piperazinyl)ethylamino]-N-phenylbenzamide] | Negative | Positive | 300 | 0.3 | 
24 | Cl.NC(=O)c1cc(N)ccc1NCCN1CCN(c2ccccc2)CC1 [XXI, 5-Amino-2-(2-[4-phenyl-1-piperazinyl]-ethylamino)benzamide hydrochloride] | Positive | Positive | 200 | 10 | 
25 | CN1CC[C@]23c4c5ccc(O)c4O[C@H]2[C@@H](O)C=C[C@H]3[C@H]1C5 [Morphine, reference compound] |  | Negative |  |  | Rat Tail Flick ED50 [13]: 15 mg/kg; MOUSE TAIL STIMULATION ED50 ([4]; S.C.): 1.5 mg/kg
26 | CS(=O)(=O)O.O=C1NC(c2ccccc2)N(CCN2CCC(O)(c3ccccc3)CC2)c2ccccc21 (stereo not shown) [Example XXVI, 1-[2-(4-Hydroxy-4-phenylpiperidino)ethyl]-2-phenyl-1,2,3,4-tetrahydro-4-quinazolinone Methanesulfonate] | Positive | Negative | 200 | 3 | 
